{"source": "patent US20240384350A1", "about": "“METHODS OF TREATING CANCER WITH KINASE INHIBITORS” (BOARD OF REGENTS, THE UNIVERSITY OF TEXAS SYSTEM, priority 2021, published 2024)", "assay_in_all_cases": "Ba/F3 drug screening, Cell Titer Glo, IC50 Mut/WT", "format_in_all_cases": "cell-based", "key": {"EGFR I740dupIPVAK": {"system": "EGFR I740dupIPVAK", "settings": "PACC; I740dupIPVAK; Ba/F3; 72 hours"}, "EGFR L858R T790M L718V": {"target": "T1, EGFR L858R T790M L718V (Homo sapiens, UniProt P00533, L718V/L858R/T790M)", "T1 construct": "expressed in transfected cells; host or cells: Ba/F3", "settings": "T790M-like-3R, 72 hours"}, "EGFR L858R/L718V": {"target": "T2, EGFR L858R/L718V (Homo sapiens, UniProt P00533, L718V/L858R)", "T2 construct": "host or cells: Ba/F3", "settings": "PACC; L858R/L718V; Ba/F3; 72 hours", "method": "(§1) Data represent the ratio of the IC50 value for a given TKI for cells with a PACC EGFR mutation to the IC50 value for cells with wildtype EGFR.\n(§2) Ba/F3 cell generation, drug screening, and IC50 approximations. Ba/F3 cells were obtained as a gift from Dr. Gordon Mills (MD Anderson Cancer Center), and maintained in RPMI (Sigma) containing 10% FBS, 1% penicillin/streptomycin, and 10 ng/ml recombinant mIL-3 (R&D Biosystems). To establish stable Ba/F3 cell lines, Ba/F3 cells were transduced with retroviruses containing mutant EGFR plasmids for 12-24 hours.\n(§3) After 48-72 hours of transduction, 2 μg/ml puromycin (Invitrogen) was added to Ba/F3 cell lines in complete RPMI. To select for EGFR positive cell lines, cells were stained with PE-EGFR (Biolegend) and sorted by FACS. After sorting, EGFR positive cells were maintained in RPMI containing 10% FBS, 1% penicillin/streptomycin, and 1 ng/ml EGF to support cell viability. Drug screening was performed as previously described^41,42. Shortly, cells were plated in 384-well plates (Greiner Bio-One) at 2000-3000 cells per well in technical triplicate. Seven different concentrations of TKIs or DMSO vehicle were added to reach a final volume of 40 μL per well. After 72 hours, 11 μL of Cell Titer Glo (Promega) was added to each well. Plates were incubated for a minimum of 10 minutes, and bioluminescence was determined using a FLUOstar OPTIMA plate reader (BMG LABTECH). Raw bioluminescence values were normalized to DMSO control treated cells, and values were plotted in GraphPad Prism. […] Drug screens were performed in technical triplicate on each plate and either duplicate or triplicate biological replicates."}, "EGFR Ex19del L718Q": {"target": "T3, EGFR Ex19del L718Q (Homo sapiens, UniProt P00533, DEL746-750/L718Q)", "T3 construct": "expressed in transfected cells; host or cells: Ba/F3", "settings": "PACC; Ex19del L718Q; Ba/F3; 72 hours"}, "EGFR L861R": {"target": "T4, EGFR L861R (Homo sapiens, UniProt P00533, L861R)", "T4 construct": "expressed in transfected cells; host or cells: Ba/F3 cells, retroviral pBabe-Puro vector (vector made by GeneScript from EGFR WT)", "settings": "Classical-Like, 72 hours"}, "EGFR L718Q": {"target": "T5, EGFR L718Q (Homo sapiens, UniProt P00533, L718Q)", "T5 construct": "expressed in transfected cells; host or cells: Ba/F3", "settings": "PACC; L718Q; Ba/F3; 72 hours"}, "EGFR A763insLQEA": {"target": "T6, EGFR A763insLQEA (Homo sapiens, UniProt P00533, INS763LQEA)", "T6 construct": "expressed in transfected cells; host or cells: Ba/F3 cells, retroviral pBabe-Puro vector", "settings": "Classical-Like, 72 hours", "method": "(§4) Data represent the ratio of the IC50 value for a given TKI for cells with a classical-like EGFR mutation to the IC50 value for cells with wildtype EGFR.\nas §2\n(§5) After 48-72 hours of transduction, 2 μg/ml puromycin (Invitrogen) was added to Ba/F3 cell lines in complete RPMI. To select for EGFR positive cell lines, cells were stained with PE-EGFR (Biolegend) and sorted by FACS. After sorting, EGFR positive cells were maintained in RPMI containing 10% FBS, 1% penicillin/streptomycin, and 1 ng/ml EGF to support cell viability. […] Shortly, cells were plated in 384-well plates (Greiner Bio-One) at 2000-3000 cells per well in technical triplicate. Seven different concentrations of TKIs or DMSO vehicle were added to reach a final volume of 40 μL per well. After 72 hours, 11 μL of Cell Titer Glo (Promega) was added to each well. Plates were incubated for a minimum of 10 minutes, and bioluminescence was determined using a FLUOstar OPTIMA plate reader (BMG LABTECH). Raw bioluminescence values were normalized to DMSO control treated cells, and values were plotted in GraphPad Prism. […] Drug screens were performed in technical triplicate on each plate and either duplicate or triplicate biological replicates."}, "EGFR Ex19del T790M": {"target": "T7, EGFR Ex19del T790M (Homo sapiens, UniProt P00533, DEL746-750/T790M)", "T7 construct": "expressed in transfected cells; host or cells: Ba/F3", "settings": "T790M-like-3S, 72 hours"}, "EGFR G719A L861Q": {"target": "T8, EGFR G719A L861Q (Homo sapiens, UniProt P00533, G719A/L861Q)", "T8 construct": "expressed in transfected cells; host or cells: Ba/F3", "settings": "PACC; G719A L861Q; Ba/F3; 72 hours", "method": "as §1, §2, §3"}, "EGFR L833V": {"target": "T9, EGFR L833V (Homo sapiens, UniProt P00533, L833V)", "T9 construct": "expressed in transfected cells; host or cells: Ba/F3 cells, retroviral pBabe-Puro vector", "settings": "Classical-Like, 72 hours", "method": "as §4, §2, §5"}, "EGFR L858R/T790M/L718Q": {"target": "T10, EGFR L858R/T790M/L718Q (Homo sapiens, UniProt P00533, L718Q/L858R/T790M)", "T10 construct": "expressed in transfected cells; host or cells: Ba/F3", "settings": "T790M-like-3R, 72 hours", "method": "Data represent the ratio of the IC50 value for a given TKI for cells with a T790M-like-3R EGFR mutation to the IC50 value for cells with wildtype EGFR.\nas §2\nAfter 48-72 hours of transduction, 2 μg/ml puromycin (Invitrogen) was added to Ba/F3 cell lines in complete RPMI. To select for EGFR positive cell lines, cells were stained with PE-EGFR (Biolegend) and sorted by FACS. After sorting, EGFR positive cells were maintained in RPMI containing 10% FBS, 1% penicillin/streptomycin, and 1 ng/ml EGF to support cell viability. […] Shortly, cells were plated in 384-well plates (Greiner Bio-One) at 2000-3000 cells per well in technical triplicate. Seven different concentrations of TKIs or DMSO vehicle were added to reach a final volume of 40 μL per well. After 72 hours, 11 μL of Cell Titer Glo (Promega) was added to each well. Plates were incubated for a minimum of 10 minutes, and bioluminescence was determined using a FLUOstar OPTIMA plate reader (BMG LABTECH). Raw bioluminescence values were normalized to DMSO control treated cells, and values were plotted in GraphPad Prism. […] Drug screens were performed in technical triplicate on each plate and either duplicate or triplicate biological replicates. […] Statistical differences between groups were determined by ANOVA as described in the figure legends."}, "EGFR G719A": {"target": "T11, EGFR G719A (Homo sapiens, UniProt P00533, G719A)", "T11 construct": "expressed in transfected cells; host or cells: Ba/F3", "settings": "PACC; G719A; Ba/F3; 72 hours"}, "EGFR R776H": {"target": "T12, EGFR R776H (Homo sapiens, UniProt P00533, R776H)", "T12 construct": "host or cells: Ba/F3", "settings": "PACC; R776H; Ba/F3; 72 hours"}, "EGFR Ex19del G796S": {"target": "T13, EGFR Ex19del G796S (Homo sapiens, UniProt P00533, DEL746-750/G796S)", "T13 construct": "expressed in transfected cells; host or cells: Ba/F3", "settings": "PACC; Ex19del G796S; Ba/F3; 72 hours"}, "EGFR D761N": {"target": "T14, EGFR D761N (Homo sapiens, UniProt P00533, D761N)", "T14 construct": "expressed in transfected cells; host or cells: Ba/F3 cells, retroviral pBabe-Puro vector", "settings": "Classical-Like, 72 hours", "method": "as §4, §2, §5"}, "EGFR Ex19del T790M L718V": {"target": "T15, EGFR Ex19del T790M L718V (Homo sapiens, UniProt P00533, DEL746-750/L718V/T790M)", "T15 construct": "expressed in transfected cells; host or cells: Ba/F3", "settings": "T790M-like-3S, 72 hours"}, "EGFR L747P": {"target": "T16, EGFR L747P (Homo sapiens, UniProt P00533, L747P)", "T16 construct": "expressed in transfected cells; host or cells: Ba/F3", "settings": "PACC; L747P; Ba/F3; 72 hours", "method": "as §1, §2\n(§6) After 48-72 hours of transduction, 2 μg/ml puromycin (Invitrogen) was added to Ba/F3 cell lines in complete RPMI. To select for EGFR positive cell lines, cells were stained with PE-EGFR (Biolegend) and sorted by FACS. After sorting, EGFR positive cells were maintained in RPMI containing 10% FBS, 1% penicillin/streptomycin, and 1 ng/ml EGF to support cell viability. Drug screening was performed as previously described^41,42. Shortly, cells were plated in 384-well plates (Greiner Bio-One) at 2000-3000 cells per well in technical triplicate. Seven different concentrations of TKIs or DMSO vehicle were added to reach a final volume of 40 μL per well. After 72 hours, 11 μL of Cell Titer Glo (Promega) was added to each well. Plates were incubated for a minimum of 10 minutes, and bioluminescence was determined using a FLUOstar OPTIMA plate reader (BMG LABTECH). Raw bioluminescence values were normalized to DMSO control treated cells, and values were plotted in GraphPad Prism. […] Drug screens were performed in technical triplicate on each plate and either duplicate or triplicate biological replicates. […] Statistical differences between groups were determined by ANOVA as described in the figure legends."}, "EGFR N771dupN G724S": {"target": "T17, EGFR N771dupN G724S (Homo sapiens, UniProt P00533, DUP771-771/G724S)", "T17 construct": "expressed in transfected cells; host or cells: Ba/F3 cells, retroviral pBabe-Puro vector (vector made by GeneScript from EGFR G724S, c.2313_2314insAAC)", "settings": "Ex20, 72 hours", "method": "Data represent the ratio of the IC50 value for a given TKI for cells with an ex20ins EGFR mutation to the IC50 value for cells with wildtype EGFR.\nas §2, §6"}, "EGFR E709K": {"target": "T18, EGFR E709K (Homo sapiens, UniProt P00533, E709K)", "T18 construct": "expressed in transfected cells; host or cells: Ba/F3", "settings": "PACC; E709K; Ba/F3; 72 hours"}, "EGFR S768I/V769L": {"target": "T19, EGFR S768I/V769L (Homo sapiens, UniProt P00533, S768I/V769L)", "T19 construct": "host or cells: Ba/F3", "settings": "PACC; S768I/V769L; Ba/F3; 72 hours", "method": "as §1, §2, §3"}, "EGFR L747S": {"target": "T20, EGFR L747S (Homo sapiens, UniProt P00533, L747S)", "T20 construct": "expressed in transfected cells; host or cells: Ba/F3", "settings": "PACC; L747S; Ba/F3; 72 hours", "method": "as §1, §2, §3"}, "EGFR T790M": {"target": "T21, EGFR T790M (Homo sapiens, UniProt P00533, T790M)", "T21 construct": "expressed in transfected cells; host or cells: Ba/F3", "settings": "T790M-like-3S, 72 hours", "method": "(§7) Data represent the ratio of the IC50 value for a given TKI for cells with a T790M-like-3S EGFR mutation to the IC50 value for cells with wildtype EGFR.\nas §2, §3"}, "EGFR L858R T790M L792H": {"target": "T22, EGFR L858R T790M L792H (Homo sapiens, UniProt P00533, L792H/L858R/T790M)", "T22 construct": "expressed in transfected cells; host or cells: Ba/F3", "settings": "T790M-like-3S, 72 hours", "method": "as §7, §2, §3"}, "EGFR L858R/L792H": {"target": "T23, EGFR L858R/L792H (Homo sapiens, UniProt P00533, L792H/L858R)", "T23 construct": "expressed in transfected cells; host or cells: Ba/F3", "settings": "PACC; L858R/L792H; Ba/F3; 72 hours", "method": "as §1, §2, §3"}}}
{"smiles": "COc1cc2ncnc(Nc3cccc(Cl)c3F)c2cc1OC(=O)N1CCN(C)C[C@H]1C", "note": "[AZD3759]", "values": [{"measurement": "ratio of IC50 for cells with mutant EGFR to IC50 for cells with wildtype EGFR (Mut/WT)", "setting": "EGFR I740dupIPVAK", "result": 0.08984}, {"measurement": "ratio of IC50 for cells with mutant EGFR to IC50 for cells with wildtype EGFR (Mut/WT)", "setting": "EGFR L858R T790M L718V", "result": 4.812}, {"measurement": "ratio of IC50 for cells with mutant EGFR to IC50 for cells with wildtype EGFR (Mut/WT)", "setting": "EGFR L858R/L718V", "result": 0.2408}, {"measurement": "ratio of IC50 for cells with mutant EGFR to IC50 for cells with wildtype EGFR (Mut/WT)", "setting": "EGFR Ex19del L718Q", "result": 4.812}, {"measurement": "ratio of IC50 for cells with mutant EGFR to IC50 for cells with wildtype EGFR (Mut/WT)", "setting": "EGFR L861R", "result": 0.03704}, {"measurement": "ratio of IC50 for cells with mutant EGFR to IC50 for cells with wildtype EGFR (Mut/WT)", "setting": "EGFR L718Q", "result": 1.696}, {"measurement": "ratio of IC50 for cells with mutant EGFR to IC50 for cells with wildtype EGFR (Mut/WT)", "setting": "EGFR A763insLQEA", "result": 0.02905}, {"measurement": "ratio of IC50 for cells with mutant EGFR to IC50 for cells with wildtype EGFR (Mut/WT)", "setting": "EGFR Ex19del T790M", "result": 12.68}, {"measurement": "ratio of IC50 for cells with mutant EGFR to IC50 for cells with wildtype EGFR (Mut/WT)", "setting": "EGFR G719A L861Q", "result": 0.07458}, {"measurement": "ratio of IC50 for cells with mutant EGFR to IC50 for cells with wildtype EGFR (Mut/WT)", "setting": "EGFR L833V", "result": 0.1488}, {"measurement": "ratio of IC50 for cells with mutant EGFR to IC50 for cells with wildtype EGFR (Mut/WT)", "setting": "EGFR L858R/T790M/L718Q", "result": 4.812}, {"measurement": "ratio of IC50 for cells with mutant EGFR to IC50 for cells with wildtype EGFR (Mut/WT)", "setting": "EGFR G719A", "result": 0.1002}, {"measurement": "ratio of IC50 for cells with mutant EGFR to IC50 for cells with wildtype EGFR (Mut/WT)", "setting": "EGFR R776H", "result": 0.02185}, {"measurement": "ratio of IC50 for cells with mutant EGFR to IC50 for cells with wildtype EGFR (Mut/WT)", "setting": "EGFR Ex19del G796S", "result": 4.084}, {"measurement": "ratio of IC50 for cells with mutant EGFR to IC50 for cells with wildtype EGFR (Mut/WT)", "setting": "EGFR D761N", "result": 0.6757}, {"measurement": "ratio of IC50 for cells with mutant EGFR to IC50 for cells with wildtype EGFR (Mut/WT)", "setting": "EGFR Ex19del T790M L718V", "result": 4.812}, {"measurement": "ratio of IC50 for cells with mutant EGFR to IC50 for cells with wildtype EGFR (Mut/WT)", "setting": "EGFR L747P", "result": 0.2937}, {"measurement": "ratio of IC50 for cells with mutant EGFR to IC50 for cells with wildtype EGFR (Mut/WT)", "setting": "EGFR N771dupN G724S", "result": 1.258}, {"measurement": "ratio of IC50 for cells with mutant EGFR to IC50 for cells with wildtype EGFR (Mut/WT)", "setting": "EGFR E709K", "result": 0.3129}, {"measurement": "ratio of IC50 for cells with mutant EGFR to IC50 for cells with wildtype EGFR (Mut/WT)", "setting": "EGFR S768I/V769L", "result": 0.7072}, {"measurement": "ratio of IC50 for cells with mutant EGFR to IC50 for cells with wildtype EGFR (Mut/WT)", "setting": "EGFR L747S", "result": 0.08122}, {"measurement": "ratio of IC50 for cells with mutant EGFR to IC50 for cells with wildtype EGFR (Mut/WT)", "setting": "EGFR T790M", "result": 21.82}, {"measurement": "ratio of IC50 for cells with mutant EGFR to IC50 for cells with wildtype EGFR (Mut/WT)", "setting": "EGFR L858R T790M L792H", "result": 9.625}, {"measurement": "ratio of IC50 for cells with mutant EGFR to IC50 for cells with wildtype EGFR (Mut/WT)", "setting": "EGFR L858R/L792H", "result": 0.03125}]}
